# From ChEMBL document CHEMBL1201861, “Genomics of Drug Sensitity in Cancer screening data, Wellcome Trust Sanger Institute”
# Assays:
# Assay in all cases: cells
# Detroit 562 = assay type: functional, cell-based, Homo sapiens; settings: Homo sapiens, Detroit 562;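 also: growth inhibition of human Detroit 562 cells, read out by a cell viability assay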
# Description: SANGER: Inhibition of human Detroit562 cell growth in a cell viability assay.
# IA-LM = assay type: functional, cell-based, Homo sapiens; settings: Homo sapiens, IA-LM;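 also: cell viability assay measuring growth inhibition of human IA-LM cells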
# Description: SANGER: Inhibition of human IA-LM cell growth in a cell viability assay.
# LXF-289 cell line = assay type: functional, cell-based, Homo sapiens; settings: Homo sapiens, LXF-289
# Description: SANGER: Inhibition of human LXF-289 cell growth in a cell viability assay.
# NCI-H2126 = assay type: functional, cell-based, Homo sapiens; settings: Homo sapiens, NCI-H2126;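 also: growth inhibition of the cancer cell line, determined with a cell viability readout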
# Description: SANGER: Inhibition of human NCI-H2126 cell growth in a cell viability assay.
# M059J = assay type: functional, cell-based, Homo sapiens; settings: Homo sapiens, M059J;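 also: growth inhibition of M059J cells, read out with a cell viability assay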
# Description: SANGER: Inhibition of human M059J cell growth in a cell viability assay.
# MFE-280 = assay type: functional, cell-based, Homo sapiens; settings: Homo sapiens, MFE-280;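 also: growth inhibition of MFE-280 cells, determined with a cell viability readout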
# Description: SANGER: Inhibition of human MFE-280 cell growth in a cell viability assay.
# HCC1419 = assay type: functional, cell-based, Homo sapiens; settings: Homo sapiens, HCC1419;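 also: growth inhibition of human HCC1419 cells, read out as cell viability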
# Description: SANGER: Inhibition of human HCC1419 cell growth in a cell viability assay.
# GCT = assay type: functional, cell-based, Homo sapiens; settings: Homo sapiens, GCT;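 also: GCT cell line proliferation inhibition, read out with a cell viability assay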
# Description: SANGER: Inhibition of human GCT cell growth in a cell viability assay.
# NCI-H2030 = assay type: functional, cell-based, Homo sapiens; settings: Homo sapiens, NCI-H2030;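 also: growth inhibition of human NCI-H2030 cells, read out by a cell viability assay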
# Description: SANGER: Inhibition of human NCI-H2030 cell growth in a cell viability assay.
# TGBC24TKB = assay type: functional, cell-based, Homo sapiens; settings: Homo sapiens, TGBC24TKB;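 also: growth inhibition of human TGBC24TKB cells, read out with a cell viability assay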
# Description: SANGER: Inhibition of human TGBC24TKB cell growth in a cell viability assay.
# HTC-C3 = assay type: functional, cell-based, Homo sapiens; settings: Homo sapiens, HTC-C3;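 also: inhibition of cell growth, read out with a cell viability assay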
# Description: SANGER: Inhibition of human HTC-C3 cell growth in a cell viability assay.
# A4-Fuk = assay type: functional, cell-based; settings: Homo sapiens;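 also: growth inhibition of A4-Fuk cells, read out by a cell viability assay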
# Description: SANGER: Inhibition of human A4-Fuk cell growth in a cell viability assay.
# A204 = assay type: functional, cell-based, Homo sapiens; settings: Homo sapiens, A204;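 also: growth inhibition of human A204 cells, read out with a cell viability assay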
# Description: SANGER: Inhibition of human A204 cell growth in a cell viability assay.
# CAL-51 = assay type: functional, cell-based, Homo sapiens; settings: Homo sapiens, CAL-51;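 also: human CAL-51 cell line, growth inhibition read out via a cell viability assay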
# Description: SANGER: Inhibition of human CAL-51 cell growth in a cell viability assay.
# FTC-133 = assay type: functional, cell-based, Homo sapiens; settings: Homo sapiens, FTC-133
# Ca-Ski = assay type: functional, cell-based; settings: Homo sapiens;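 also: cell viability assay measuring inhibition of Ca-Ski cell growth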
# Description: SANGER: Inhibition of human Ca-Ski cell growth in a cell viability assay.
# PANC-08-13 = assay type: functional, cell-based, Homo sapiens; settings: Homo sapiens, PANC-08-13;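 also: cell growth inhibition, measured with a cell viability assay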
# Description: SANGER: Inhibition of human PANC-08-13 cell growth in a cell viability assay.
# HT = assay type: functional, cell-based; settings: Homo sapiens
# Description: SANGER: Inhibition of human HT cell growth in a cell viability assay.
# PFSK-1 = assay type: functional, cell-based, Homo sapiens; settings: Homo sapiens, PFSK-1;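 also: cell viability assay measuring how strongly compounds suppress growth of human PFSK-1 cells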
# Description: SANGER: Inhibition of human PFSK-1 cell growth in a cell viability assay.
# NCI-H526 = assay type: functional, cell-based; settings: Homo sapiens;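 also: growth inhibition of the human NCI-H526 cell line, measured by a cell viability assay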
# Description: SANGER: Inhibition of human NCI-H526 cell growth in a cell viability assay.
# K5 = assay type: functional, cell-based, Homo sapiens; settings: Homo sapiens, K5
# Description: SANGER: Inhibition of human K5 cell growth in a cell viability assay.
# NCI-H1623 = assay type: functional, cell-based, Homo sapiens; settings: Homo sapiens, NCI-H1623;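 also: cell viability assay used as the read-out for growth inhibition of NCI-H1623 cells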
# Description: SANGER: Inhibition of human NCI-H1623 cell growth in a cell viability assay.
# NCI-H747 = assay type: functional, cell-based; settings: Homo sapiens;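 also: growth inhibition of human NCI-H747 cells, read out by a cell viability assay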
# Description: SANGER: Inhibition of human NCI-H747 cell growth in a cell viability assay.
# KYSE-510 = assay type: functional, cell-based, Homo sapiens; settings: Homo sapiens, KYSE-510;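 also: cell viability readout used to measure how strongly growth of the cell line is suppressed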
# Description: SANGER: Inhibition of human KYSE-510 cell growth in a cell viability assay.
# DB = assay type: functional, cell-based; settings: Homo sapiens
# Description: SANGER: Inhibition of human DB cell growth in a cell viability assay.
# KMOE-2 = assay type: functional, cell-based; settings: Homo sapiens;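 also: growth inhibition of human KMOE-2 cells, read out with a cell viability assay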
# Description: SANGER: Inhibition of human KMOE-2 cell growth in a cell viability assay.
# MHH-ES-1 = assay type: functional, cell-based, Homo sapiens; settings: Homo sapiens, MHH-ES-1;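 also: cell growth inhibition measured by a cell viability assay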
# Description: SANGER: Inhibition of human MHH-ES-1 cell growth in a cell viability assay.
# KYSE-270 = assay type: functional, cell-based, Homo sapiens; settings: Homo sapiens, KYSE-270;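 also: cell growth inhibition measured with a viability assay in the human KYSE-270 line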
# Description: SANGER: Inhibition of human KYSE-270 cell growth in a cell viability assay.
# HC-1 = assay type: functional, cell-based; settings: Homo sapiens;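 also: growth inhibition of HC-1 cells measured by a cell viability assay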
# Description: SANGER: Inhibition of human HC-1 cell growth in a cell viability assay.
# TE-12 = assay type: functional, cell-based; settings: Homo sapiens;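 also: growth inhibition of TE-12 cells, read out by a cell viability assay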
# Description: SANGER: Inhibition of human TE-12 cell growth in a cell viability assay.
# KALS-1 = assay type: functional, cell-based, Homo sapiens; settings: Homo sapiens, KALS-1;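 also: growth inhibition of KALS-1 cells, determined with a cell viability assay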
# Description: SANGER: Inhibition of human KALS-1 cell growth in a cell viability assay.
# TYK-nu = assay type: functional, cell-based, Homo sapiens; settings: Homo sapiens, TYK-nu;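 also: growth inhibition of human TYK-nu cells, read out by a cell viability assay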
# Description: SANGER: Inhibition of human TYK-nu cell growth in a cell viability assay.
# LNCaP-Clone-FGC = assay type: functional, cell-based, Homo sapiens; settings: Homo sapiens, LNCaP-Clone-FGC
# Description: SANGER: Inhibition of human LNCaP-Clone-FGC cell growth in a cell viability assay.
# LU-139 = assay type: functional, cell-based; settings: Homo sapiens
# Description: SANGER: Inhibition of human LU-139 cell growth in a cell viability assay.
# SNU-387 = assay type: functional, cell-based, Homo sapiens; settings: Homo sapiens, SNU-387
# Description: SANGER: Inhibition of human SNU-387 cell growth in a cell viability assay.
# DoTc2-4510 = assay type: functional, cell-based, Homo sapiens; settings: Homo sapiens, DoTc2-4510
# SK-MEL-28 = assay type: functional, cell-based; settings: Homo sapiens;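 also: growth inhibition of human SK-MEL-28 cells, read out with a cell viability assay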
# Description: SANGER: Inhibition of human SK-MEL-28 cell growth in a cell viability assay.
# ASPC1 = assay type: functional, cell-based, Homo sapiens; settings: Homo sapiens, ASPC1;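 also: growth inhibition of AsPC-1 cells, read out with a cell viability assay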
# Description: SANGER: Inhibition of human AsPC-1 cell growth in a cell viability assay.
# SW982 = assay type: functional, cell-based; settings: Homo sapiens;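 also: growth inhibition of SW982 cells, read out with a cell viability assay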
# Description: SANGER: Inhibition of human SW982 cell growth in a cell viability assay.
# KYSE-450 = assay type: functional, cell-based; settings: Homo sapiens;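 also: cell growth inhibition measured by a viability assay in human KYSE-450 cells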
# Description: SANGER: Inhibition of human KYSE-450 cell growth in a cell viability assay.
# TGBC1TKB = assay type: functional, cell-based, Homo sapiens; settings: Homo sapiens, TGBC1TKB;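 also: growth inhibition of TGBC1TKB cells, read out by a cell viability assay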
# Description: SANGER: Inhibition of human TGBC1TKB cell growth in a cell viability assay.
# CAL-12T = assay type: functional, cell-based, Homo sapiens; settings: Homo sapiens, CAL-12T;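 also: growth inhibition of human CAL-12T cells, read out with a cell viability assay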
# Description: SANGER: Inhibition of human CAL-12T cell growth in a cell viability assay.
# SW13 = assay type: functional, cell-based, Homo sapiens; settings: Homo sapiens, SW13;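 also: IC50 is inhibition of SW13 cell growth, read out with a cell viability assay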
# Description: SANGER: Inhibition of human SW13 cell growth in a cell viability assay.
# Lu-65 = assay type: functional, cell-based; settings: Homo sapiens;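 also: growth inhibition of Lu-65 cancer cells, read out by a cell viability assay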
# Description: SANGER: Inhibition of human LU-65 cell growth in a cell viability assay.
# LB2241-RCC = assay type: functional, cell-based, Homo sapiens; settings: Homo sapiens, LB2241-RCC;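 also: cell viability assay measuring how strongly the cultured human renal carcinoma line is prevented from growing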
# Description: SANGER: Inhibition of human LB2241-RCC cell growth in a cell viability assay.
# MKN-1 = assay type: functional, cell-based, Homo sapiens; settings: Homo sapiens, MKN-1;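 also: growth inhibition of human MKN1 cells, read out by a cell viability measurement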
# Description: SANGER: Inhibition of human MKN1 cell growth in a cell viability assay.
# SCC-25 = assay type: functional, cell-based, Homo sapiens; settings: Homo sapiens, SCC-25;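 also: growth inhibition of SCC-25 cells, measured with a cell viability assay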
# Description: SANGER: Inhibition of human SCC-25 cell growth in a cell viability assay.
# SCH = assay type: functional, cell-based, Homo sapiens; settings: Homo sapiens, SCH;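 also: growth inhibition of human SCH cells, read out in a cell viability assay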
# Description: SANGER: Inhibition of human SCH cell growth in a cell viability assay.
# D-392MG = assay type: functional, cell-based, Homo sapiens; settings: Homo sapiens, D-392MG
# RT-112 = assay type: functional, cell-based, Homo sapiens; settings: Homo sapiens, RT-112
# Description: SANGER: Inhibition of human RT-112 cell growth in a cell viability assay.
# ATN-1 = assay type: functional, cell-based; settings: Homo sapiens;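 also: growth inhibition of human ATN-1 cells, read out with a cell viability assay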
# Description: SANGER: Inhibition of human ATN-1 cell growth in a cell viability assay.
# ES4 = assay type: functional, cell-based, Homo sapiens; settings: Homo sapiens, ES4;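 also: growth inhibition of human ES4 cells, read out by a cell viability assay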
# Description: SANGER: Inhibition of human ES4 cell growth in a cell viability assay.
structure (smiles),measurement,setting,value
Cc1cnc(-c2cnc(NCCNc3ccc(C#N)cn3)nc2-c2ccc(Cl)cc2Cl)[nH]1 [LADUVIGLUSIB],IC50,Detroit 562,> 2560 nM
same,IC50,IA-LM,> 2560 nM
same,IC50,LXF-289 cell line,> 2560 nM
same,IC50,NCI-H2126,> 2560 nM
same,IC50,M059J,> 2560 nM
same,IC50,MFE-280,> 2560 nM
same,IC50,HCC1419,> 2560 nM
same,IC50,GCT,307 nM
same,IC50,NCI-H2030,> 2560 nM
same,IC50,TGBC24TKB,> 2560 nM
same,IC50,HTC-C3,> 2560 nM
same,IC50,A4-Fuk,> 2560 nM
same,IC50,A204,> 2560 nM
same,IC50,CAL-51,> 2560 nM
same,IC50,FTC-133,> 2560 nM
same,IC50,Ca-Ski,> 2560 nM
same,IC50,PANC-08-13,> 2560 nM
same,IC50,HT,> 2560 nM
same,IC50,PFSK-1,> 2560 nM
same,IC50,NCI-H526,> 2560 nM
same,IC50,K5,> 2560 nM
same,IC50,NCI-H1623,> 2560 nM
same,IC50,NCI-H747,> 2560 nM
same,IC50,KYSE-510,> 2560 nM
same,IC50,DB,> 2560 nM
same,IC50,KMOE-2,> 2560 nM
same,IC50,MHH-ES-1,> 2560 nM
same,IC50,KYSE-270,> 2560 nM
same,IC50,HC-1,> 2560 nM
same,IC50,TE-12,> 2560 nM
same,IC50,KALS-1,> 2560 nM
same,IC50,TYK-nu,1080 nM
same,IC50,LNCaP-Clone-FGC,> 2560 nM
same,IC50,LU-139,> 2560 nM
same,IC50,SNU-387,> 2560 nM
same,IC50,DoTc2-4510,> 2560 nM
same,IC50,SK-MEL-28,> 2560 nM
same,IC50,ASPC1,> 2560 nM
same,IC50,SW982,214 nM
same,IC50,KYSE-450,> 2560 nM
same,IC50,TGBC1TKB,> 2560 nM
same,IC50,CAL-12T,> 2560 nM
same,IC50,SW13,> 2560 nM
same,IC50,Lu-65,> 2560 nM
same,IC50,LB2241-RCC,> 2560 nM
same,IC50,MKN-1,> 2560 nM
same,IC50,SCC-25,> 2560 nM
same,IC50,SCH,> 2560 nM
same,IC50,D-392MG,> 2560 nM
same,IC50,RT-112,> 2560 nM
same,IC50,ATN-1,> 2560 nM
same,IC50,ES4,> 2560 nM
C[C@]1(O)C[C@@H](c2nc(-c3ccc4ccc(-c5ccccc5)nc4c3)c3c(N)nccn32)C1 [LINSITINIB],IC50,Detroit 562,> 2560 nM
same,IC50,IA-LM,> 2560 nM
same,IC50,LXF-289 cell line,> 2560 nM
same,IC50,NCI-H2126,> 2560 nM
same,IC50,M059J,> 2560 nM
same,IC50,MFE-280,> 2560 nM
same,IC50,HCC1419,> 2560 nM
same,IC50,GCT,> 2560 nM
same,IC50,NCI-H2030,> 2560 nM
same,IC50,TGBC24TKB,1500 nM
same,IC50,HTC-C3,> 2560 nM
same,IC50,A4-Fuk,28.1 nM
same,IC50,A204,> 2560 nM
same,IC50,CAL-51,> 2560 nM
same,IC50,FTC-133,> 2560 nM
same,IC50,Ca-Ski,> 2560 nM
same,IC50,PANC-08-13,864 nM
same,IC50,HT,> 2560 nM
same,IC50,PFSK-1,> 2560 nM
same,IC50,NCI-H526,> 2560 nM
same,IC50,K5,> 2560 nM
same,IC50,NCI-H1623,> 2560 nM
same,IC50,NCI-H747,> 2560 nM
same,IC50,KYSE-510,> 2560 nM
same,IC50,DB,> 2560 nM
same,IC50,KMOE-2,> 2560 nM
same,IC50,MHH-ES-1,> 2560 nM
same,IC50,KYSE-270,> 2560 nM
same,IC50,HC-1,> 2560 nM
same,IC50,TE-12,765 nM
same,IC50,KALS-1,> 2560 nM
same,IC50,TYK-nu,> 2560 nM
same,IC50,LNCaP-Clone-FGC,> 2560 nM
same,IC50,LU-139,> 2560 nM
same,IC50,SNU-387,994 nM
same,IC50,DoTc2-4510,> 2560 nM
same,IC50,SK-MEL-28,> 2560 nM
same,IC50,ASPC1,> 2560 nM
same,IC50,SW982,> 2560 nM
same,IC50,KYSE-450,> 2560 nM
same,IC50,TGBC1TKB,> 2560 nM
same,IC50,CAL-12T,> 2560 nM
same,IC50,SW13,> 2560 nM
same,IC50,Lu-65,> 2560 nM
same,IC50,LB2241-RCC,> 2560 nM
same,IC50,MKN-1,> 2560 nM
same,IC50,SCC-25,> 2560 nM
same,IC50,SCH,> 2560 nM
same,IC50,D-392MG,> 2560 nM
same,IC50,RT-112,> 2560 nM
same,IC50,ATN-1,> 2560 nM
same,IC50,ES4,410 nM
